According to ChEMBL document CHEMBL1139731, “Identification of non-furan containing A2A antagonists using database mining and molecular similarity approaches” (Bioorg Med Chem Lett, 2006):

Columns and labels:
[1] = biological target: T1, Adenosine receptor A1 (Homo sapiens, UniProt P30542); assay: Displacement of [3H]DPCPX from recombinant adenosine A1 receptor
T1 sequence (P30542 whole entry): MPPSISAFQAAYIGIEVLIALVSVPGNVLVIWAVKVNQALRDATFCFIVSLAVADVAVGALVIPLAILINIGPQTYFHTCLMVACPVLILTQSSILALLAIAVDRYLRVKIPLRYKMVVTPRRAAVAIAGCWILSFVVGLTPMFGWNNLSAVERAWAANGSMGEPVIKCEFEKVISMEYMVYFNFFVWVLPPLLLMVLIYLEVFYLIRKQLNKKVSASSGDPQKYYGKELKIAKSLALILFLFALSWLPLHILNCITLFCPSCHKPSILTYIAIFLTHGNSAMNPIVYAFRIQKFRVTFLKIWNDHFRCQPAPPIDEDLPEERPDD

[2] = biological target: Adenosine receptor A2a (Homo sapiens, UniProt P29274); assay: Displacement of [3H]CGS21680 from human recombinant adenosine A2A receptor
Chain of Adenosine receptor A2a (P29274 whole entry): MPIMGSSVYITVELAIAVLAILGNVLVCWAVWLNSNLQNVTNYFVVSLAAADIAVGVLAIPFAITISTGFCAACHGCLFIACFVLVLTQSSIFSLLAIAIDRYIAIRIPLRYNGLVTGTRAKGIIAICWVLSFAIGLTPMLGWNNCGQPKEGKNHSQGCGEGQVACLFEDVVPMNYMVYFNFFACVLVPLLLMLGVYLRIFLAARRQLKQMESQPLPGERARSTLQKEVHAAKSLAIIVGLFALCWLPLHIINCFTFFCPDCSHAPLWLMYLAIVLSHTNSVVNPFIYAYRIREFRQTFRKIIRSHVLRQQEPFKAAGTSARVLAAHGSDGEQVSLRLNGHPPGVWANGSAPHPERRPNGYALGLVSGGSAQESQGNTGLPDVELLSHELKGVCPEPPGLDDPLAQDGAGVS

Compound | Ki [1] | Ki [2]
N#Cc1c(-c2ccc(F)cc2)cc(C2CC2)nc1N | 865 nM (antagonist) | 106 nM (antagonist)
COc1cccc(-c2cc(C(F)(F)F)nc(NCc3ccc(F)cc3)n2)c1 | > 10000 nM | 290 nM (antagonist)
CCSc1nc(N)nc(-c2ccccc2)n1 | 67 nM (antagonist) | 5 nM (antagonist)
N#Cc1c(-c2ccccc2Cl)cc(-c2ccccc2)nc1N | 239 nM (antagonist) | 89 nM (antagonist)
N#Cc1c(N)nc2c(c1-c1ccc(F)cc1)CCC2 |  | 232 nM (antagonist)
Fc1ccc(CNc2nc(-c3ccccc3)cc(C(F)(F)F)n2)cc1 | > 10000 nM | 287 nM (antagonist)
Fc1ccc(CNc2nc(-c3cccs3)cc(C(F)(F)F)n2)cc1 | > 10000 nM | 287 nM (antagonist)
CCOc1cc(-c2cc(-c3ccc(O)cc3)nc(N)c2C#N)ccc1O | 42 nM (antagonist) | 267 nM (antagonist)
N#Cc1c(-c2ccc(Cl)cc2)cc(-c2ccccc2)nc1N | 192 nM (antagonist) | 201 nM (antagonist)
CSc1nc(N)nc(-c2cccc(-c3ccc4[nH]ccc4c3)c2)n1 | 218 nM (antagonist) | 31 nM (antagonist)
Fc1ccc(CNc2nc(-c3ccc(Cl)cc3)cc(C(F)(F)F)n2)cc1 | > 10000 nM | 454 nM (antagonist)
COc1cc(-c2cc(-c3ccc(O)cc3)nc(N)c2C#N)ccc1O | 94 nM (antagonist) | 151 nM (antagonist)
N#Cc1c(-c2ccc(Cl)cc2)cc(-c2ccccc2Cl)nc1N | 1740 nM (antagonist) | 403 nM (antagonist)
Cc1ccc(-c2cc(-c3ccccc3)nc(N)c2C#N)cc1 | 274 nM (antagonist) | 118 nM (antagonist)
N#Cc1c(-c2ccc(F)cc2)cc(-c2ccccc2)nc1N | 59 nM (antagonist) | 87 nM (antagonist)
COc1ccc(-c2cccc(-c3nc(N)nc(SC)n3)c2)cn1 | 840 nM (antagonist) | 23 nM (antagonist)
N#Cc1c(-c2ccc(Cl)c(Cl)c2)cc(-c2cccnc2)nc1N | > 10000 nM | 210 nM (antagonist)
